Laboratory results: patent US9982005B2, “Macrolides and methods of their preparation and use” (President and Fellows of Harvard College, priority 2013, dated 2018)
Values after ≈ are worked out from the molar mass of the structure shown. Read-outs that look alike come from different tables or passages of the source.

Columns and labels:
Type in all cases: cell-based
[1] = test system: Spn1509 S. pneumoniae ermB positive mefA negative; assay: broth dilution MIC, S. pneumoniae Spn1509; conditions: Streptococcus pneumoniae; Spn1509 S. pneumoniae ermB positive mefA negative; read-out: MIC
Source text: (§1) We have collected MIC data for a total of 50 novel macrolides that this platform has produced against over 21 unique strains of B. subtilis, E. coli, S. aureus, S. pneumoniae, and H. influenzae, including several multidrug-resistant strains, with a special focus on macrolide resistant mechanisms (vide supra). Azithromycin was included as a control macrolide. CLSI standard procedures for broth dilution MIC determination were used. […] These genotypes can be constitutive or inducible. The finding that C4-epi (unnatural) isomers of the “azaketolide” macrolide class have enhanced activities relative to C4 natural isomers is very exciting.

A. baumannii strains = assay: MIC against A. baumannii strains (Table M8); conditions: Acinetobacter baumannii, BAA747, A. baumannii BAA747-1
EC882 E. coli imp = assay: broth dilution MIC, E. coli EC882; conditions: Escherichia coli
Method in brief: (§2)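 Broth dilution (CLSI standard) gave the minimum inhibitory concentrations. Resistance genotypes in the panel can be constitutive or inducible.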

[2] = test system: S. aureus (Newman, clinical isolate); assay: MIC, S. aureus Newman; conditions: Staphylococcus aureus
Source text: as §1

EC107 E. coli ATCC25922 = assay: broth dilution MIC, E. coli EC107; conditions: Escherichia coli, read-out: MIC
Method in brief: as §2

EC878 E. coli tolC = assay: broth dilution MIC, E. coli EC878; conditions: Escherichia coli
Method in brief: as §2

E. coli strains = assay: MIC against E. coli strains (Table M7); conditions: Escherichia coli, ATCC25922, E. coli ATCC 25922
Method in brief: as §2

[3] = test system: BS1723 B. subtilis BS168 WT wild type; assay: broth dilution MIC, B. subtilis BS1723; conditions: Bacillus subtilis, BS1723 B. subtilis BS168 WT wild type; read-out: MIC
Method in brief: as §2

E. coli (MC4100) = assay: MIC, E. coli MC4100; conditions: Escherichia coli
Source text: as §1

[4] = test system: Spn160 S. pneumoniae ermB unknown mefA positive; assay: broth dilution MIC, S. pneumoniae Spn160; conditions: Streptococcus pneumoniae
Source text: as §1

BS1725 B. subtilis ermC = assay: broth dilution MIC, B. subtilis BS1725; conditions: Bacillus subtilis, BS1725 B. subtilis ermC (+ery)
Method in brief: as §2

K. pneumoniae strains = assay: MIC against K. pneumoniae strains (Table M8); conditions: Klebsiella pneumoniae, K. pneumoniae 10031
S. aureus strains = assay: MIC against S. aureus strains (Table M7); conditions: Staphylococcus aureus
Method in brief: as §2

[5] = test system: SA418 S. aureus ermA negative msrA positive; assay: broth dilution MIC, S. aureus SA418; conditions: Staphylococcus aureus
Source text: as §1

S. pneumoniae strains = assay: MIC against S. pneumoniae strains (Tables M7, M8); conditions: Streptococcus pneumoniae
Source text: CLSI standard procedures for broth dilution MIC determination were used. […] These genotypes can be constitutive or inducible.

[6] = test system: Spn1537 S. pneumoniae ermB positive mefA positive; assay: broth dilution MIC, S. pneumoniae Spn1537; conditions: Streptococcus pneumoniae
Source text: as §1

[7] = test system: SA506 S. aureus ermA positive msrA unknown; assay: broth dilution MIC, S. aureus SA506; conditions: Staphylococcus aureus
Source text: as §1

[8] = test system: Spn 106 S. pneumonia ATCC49619; assay: broth dilution MIC, S. pneumoniae Spn 106; conditions: Streptococcus pneumoniae; Spn 106 S. pneumonia ATCC49619; read-out: MIC
Source text: as §1

[9] = test system: SA1707 S. aureus ermA negative msrA positive; assay: broth dilution MIC, S. aureus SA1707; conditions: Staphylococcus aureus
Source text: as §1

[10] = test system: SA1708 S. aureus ermA positive msrA negative; assay: broth dilution MIC, S. aureus SA1708; conditions: Staphylococcus aureus
Source text: as §1

H. influenzae strains = assay: MIC against H. influenzae strains (Table M8); conditions: Haemophilus influenzae
Method in brief: as §2

E. faecalis strains = assay: MIC against E. faecalis strains (Table M8); conditions: Enterococcus faecalis, E. faecalis 29212
[11] = test system: SA557 S. aureus ermA unknown msrA positive; assay: broth dilution MIC, S. aureus SA557; conditions: Staphylococcus aureus; SA557 S. aureus ermA unknown msrA positive; read-out: MIC
Source text: as §1

[12] = test system: HI175 H. influenzae ATCC49247; assay: broth dilution MIC, H. influenzae HI175; conditions: Haemophilus influenzae
Source text: as §1

[13] = test system: SA183 S. aureus ermA positive msrA unknown; assay: broth dilution MIC, S. aureus SA183; conditions: Staphylococcus aureus
Source text: as §1

HI281 H. influenzae = assay: broth dilution MIC, H. influenzae HI281; conditions: Haemophilus influenzae
Source text: as §1

[14] = test system: Spn1533 S. pneumoniae ermB positive mefA positive; assay: broth dilution MIC, S. pneumoniae Spn1533; conditions: Streptococcus pneumoniae
Source text: as §1

[15] = test system: Spn1427 S. pneumoniae ermB positive mefA negative; assay: broth dilution MIC, S. pneumoniae Spn1427; conditions: Streptococcus pneumoniae
Source text: as §1

[16] = test system: SA101 S. aureus ATCC29213; assay: broth dilution MIC, S. aureus SA101; conditions: Staphylococcus aureus, ATCC29213, SA101 S. aureus ATCC29213; read-out: MIC
Method in brief: as §2

[17] = ATCC29213, S. aureus ATCC 29213, read-out: MIC S. aureus (ATCC 29213)
[18] = S. aureus 506, read-out: MIC S. aureus (506)
[19] = S. aureus 1708, read-out: MIC S. aureus (1708)
[20] = USA300, S. aureus USA300, read-out: MIC S. aureus (USA300)
[21] = S. pneumoniae 160, read-out: MIC S. pneumonae (160)
[22] = S. pneumoniae 1509, read-out: MIC S. pneumoniae (1509)
[23] = S. pneumoniae 1533, read-out: MIC S. pneumoniae (1533)
[24] = S. pneumoniae 1537, read-out: MIC S. pneumoniae (1537)
[25] = H. influenzae 49247, read-out: MIC H. influenzae (49247)
[26] = H. influenzae 49766, read-out: MIC H. influenzae (49766)

CC[C@H]1OC(=O)[C@H](C)C(=O)[C@H](C)[C@@H](O[C@@H]2OC(C)CC(N(C)C)C2O)[C@](C)(OC)C[C@@H](C)CN[C@H](C)[C@H]2N(CCCCn3cc(-c4cccc(N)c4)nn3)C(=O)O[C@]12C (some centres unmarked) [FSM-20707]
MIC [1]: 0.25 to 2 µg/mL (≈ 0.302 to 2.42 µM) | MIC (A. baumannii strains): 8 µg/mL (≈ 9.66 µM) | MIC (EC882 E. coli imp): 0.0625 µg/mL (≈ 0.0755 µM) | MIC ([2]; S. aureus (Neuman, clinical isolate), round 2): 0.5 µg/mL (≈ 0.604 µM) | MIC (EC107 E. coli ATCC25922): 8 µg/mL (≈ 9.66 µM) | MIC (EC878 E. coli tolC): 0.5 µg/mL (≈ 0.604 µM) | MIC (E. coli strains): 4 µg/mL (≈ 4.83 µM) | MIC [3]: 0.5 µg/mL (≈ 0.604 µM) | MIC (E. coli (MC4100); round 2, read-out: MIC): 4 µg/mL (≈ 4.83 µM) | MIC [4]: 0.0625 to 0.125 µg/mL (≈ 0.0755 to 0.151 µM) | MIC (BS1725 B. subtilis ermC): 8 µg/mL (≈ 9.66 µM) | MIC (K. pneumoniae strains): 2 µg/mL (≈ 2.42 µM) | MIC (S. aureus strains; [17]): 1 µg/mL (≈ 1.21 µM) | MIC (S. aureus strains; S. aureus 183, read-out: MIC S. aureus (183)): > 32 µg/mL | MIC (S. aureus strains; [18]): > 32 µg/mL | MIC (S. aureus strains; [19]): 1 µg/mL (≈ 1.21 µM) | MIC (S. aureus strains; [20]): 4 µg/mL (≈ 4.83 µM) | MIC [5]: 1 µg/mL (≈ 1.21 µM) | MIC (S. pneumoniae strains; [21]): 0.125 µg/mL (≈ 0.151 µM) | MIC (S. pneumoniae strains; [22]): 1 µg/mL (≈ 1.21 µM) | MIC (S. pneumoniae strains; [23]): > 32 µg/mL | MIC (S. pneumoniae strains; [24]): > 32 µg/mL | MIC (S. pneumoniae strains; read-out: MIC S. pneumoniae (49619)): ≤ 0.0625 µg/mL | MIC [6]: 32 µg/mL (≈ 38.6 µM) | MIC [7]: > 32 µg/mL | MIC [8]: 0.0156 to 0.0312 µg/mL (≈ 0.0188 to 0.0377 µM) | MIC [9]: 0.5 to 2 µg/mL (≈ 0.604 to 2.42 µM) | MIC [10]: 1 to 2 µg/mL (≈ 1.21 to 2.42 µM) | MIC (H. influenzae strains; [25]): 0.5 µg/mL (≈ 0.604 µM) | MIC (H. influenzae strains; [26]): 2 µg/mL (≈ 2.42 µM) | MIC (E. faecalis strains): 0.25 µg/mL (≈ 0.302 µM) | MIC [11]: 0.5 to 1 µg/mL (≈ 0.604 to 1.21 µM) | MIC [12]: 1 to 2 µg/mL (≈ 1.21 to 2.42 µM) | MIC [13]: > 32 µg/mL | MIC (HI281 H. influenzae): 4 µg/mL (≈ 4.83 µM)

CC[C@H]1OC(=O)C(C)(F)C(=O)[C@@H](C)[C@@H](O[C@@H]2OC(C)CC(N(C)C)C2O)[C@](C)(OC)C[C@@H](C)CN[C@H](C)[C@H]2N(CCCCn3cc(-c4nccs4)nn3)C(=O)O[C@]12C (some centres unmarked) [FSM-20721]
MIC [1]: 8 to 16 µg/mL (≈ 9.55 to 19.1 µM) | MIC [14]: > 32 µg/mL | MIC (EC882 E. coli imp): 0.25 µg/mL (≈ 0.298 µM) | MIC (EC107 E. coli ATCC25922): > 32 µg/mL | MIC (EC878 E. coli tolC): 1 µg/mL (≈ 1.19 µM) | MIC [3]: 8 µg/mL (≈ 9.55 µM) | MIC [15]: > 32 µg/mL | MIC ([4]; Spn160 S. pneumoniae ermB unknown mefA positive, read-out: MIC): 0.5 to 1 µg/mL (≈ 0.597 to 1.19 µM) | MIC [16]: 8 µg/mL (≈ 9.55 µM) | MIC (BS1725 B. subtilis ermC): > 32 µg/mL | MIC [5]: 16 µg/mL (≈ 19.1 µM) | MIC [6]: > 32 µg/mL | MIC [7]: > 32 µg/mL | MIC [8]: 0.125 to 0.25 µg/mL (≈ 0.149 to 0.298 µM) | MIC [9]: 16 µg/mL (≈ 19.1 µM) | MIC [10]: 16 µg/mL (≈ 19.1 µM) | MIC [11]: 16 µg/mL (≈ 19.1 µM) | MIC [12]: 8 to 32 µg/mL (≈ 9.55 to 38.2 µM) | MIC [13]: > 32 µg/mL

CC[C@H]1OC(=O)[C@H](C)C(=O)[C@H](C)[C@@H](O[C@@H]2OC(C)CC(N(C)C)C2O)[C@](C)(OC)C[C@@H](C)CN[C@H](C)[C@H]2N(CCCn3cc(-c4cccc(N)c4)nn3)C(=O)O[C@]12C (some centres unmarked) [FSM-40347]
MIC (A. baumannii strains): 8 µg/mL (≈ 9.83 µM) | MIC ([2]; S. aureus (Newman, clinical isolate), round 1): 2 µg/mL (≈ 2.46 µM) | MIC (E. coli strains): 8 µg/mL (≈ 9.83 µM) | MIC (E. coli (MC4100); round 1, read-out: MIC): 8 µg/mL (≈ 9.83 µM) | MIC (K. pneumoniae strains): 2 µg/mL (≈ 2.46 µM) | MIC (S. aureus strains; [17]): 4 µg/mL (≈ 4.91 µM) | MIC (S. aureus strains; [18]): > 32 µg/mL | MIC (S. aureus strains; [19]): 4 µg/mL (≈ 4.91 µM) | MIC (S. aureus strains; [20]): 4 µg/mL (≈ 4.91 µM) | MIC (S. pneumoniae strains; [21]): 0.125 µg/mL (≈ 0.154 µM) | MIC (S. pneumoniae strains; [22]): 32 µg/mL (≈ 39.3 µM) | MIC (S. pneumoniae strains; [23]): > 32 µg/mL | MIC (S. pneumoniae strains; [24]): > 32 µg/mL | MIC (S. pneumoniae strains; S. pneumoniae 49619, read-out: MIC S. pneumoniae (49619)): 0.25 µg/mL (≈ 0.307 µM) | MIC (H. influenzae strains; [25]): 0.5 µg/mL (≈ 0.614 µM) | MIC (H. influenzae strains; [26]): 4 µg/mL (≈ 4.91 µM) | MIC (E. faecalis strains): 0.25 µg/mL (≈ 0.307 µM)
